# Laboratory results as given in patent US7632928B2, “Method and antibodies for detecting nitrofuran” (Charm Sciences, Inc, priority 2004, dated 2009).
# Assays:
# [1] = tested on: antibody raised against FZDM-Glut-Thyroglobulin immunogen; experiment: AOZ ELISA competitive binding assay; settings: positive controls at input levels 0.1 to 10 ppb; PEB vs PBS buffer; plate coated with N-linked FZDM-BSA
# Text: An AOZ ELISA competitive binding assay is shown below, where the N-linked direct conjugate of FZDM-BSA is used as a binding partner conjugate coated on the ELISA plate, and the N-linked direct conjugate of FZDM-alpha-amylase is used as the positive control of protein-bound FZDM in comparison with the FZDM positive control. The antibody used in the assay was raised against the prior art FZDM-Glut-Thyroglobulin immunogen. Assays were run in two different buffers comparing PEB (Protein Elution Buffer) vs. PBS (Phosphate buffer saline).
melting point,dose-responses (% inhibition) [1],SMILES
171 to 173 °C,–,"N#CC=CC(=O)/C=N/N1CC(=O)NC1=O [compound 1, 5-(2,4-Dioxoimidazolidin-1-ylimino)-4-oxo-pent-2-enenitrile]"
–,varying dose-responses,"N#CC=CC(=O)/C=N/N1CCOC1=O [compound 3, 5-(2-oxo-oxazolidin-3-ylimino)-4-oxo-pent-2-enenitrile]"
